Assay results as given in patent US7091238B1, “Thienylhydrazon with digitalis-like properties (positive inotropic effects)” (University of Maryland, priority 1999, dated 2006).
Entries after “also recorded” stand apart in the source; their conditions may differ.

What was measured:
[1] = system: blood cells; assay: Blood cell analysis in treated mice; format: in vivo; settings: 2 or 10 mg/kg
Experimental: b. Rats were weighed before and after treatment with LASSBio 204. […] Six rats were examined in each group, measurements were made after 1–15 days of treatment. […] Mice were injected with LASSBio-294 and their blood examined for cell changes. Experimental groups received 2 or 10 mg/kg of drug. […] Table 4 lists blood chemistry analysis of mice treated with LASSBio-294. Experimental groups received 2 or 10 mg/kg of drug. Controls were saline and solvent. […] The low values of glucose found could be due to an artifact of the technique, glucose being a byproduct of hemolysis. […] General Method

[2] = system: particulate PDE 4; assay: Direct inhibition of particulate PDE 4; format: biochemical; settings: rat heart
[3] = system: Ca^2+-ATPase extracted from heart muscle or gastrocnemius muscle; assay: Effect on Ca2+-ATPase; format: biochemical; settings: enzyme from rat heart or gastrocnemius muscle
Description: Determination of phosphodiesterase direct effect was also negative.

[4] = system: dogs; assay: Left intraventricular and arterial pressure in intact anesthetized dogs; format: in vivo, dog; settings: normal cardiac function, no pre-load, 1 mg kg^−1 min^−1 for 13 min
Experimental: FIG. 6. Recording of left intraventricular pressure and arterial pressure in dogs anesthetized and ventilated normally.
FIG. 6 illustrates a test that measured pressure from the hearts of intact dogs during LASSBio-294 application. Recordings were made of left intraventricular pressure and arterial pressure.
Dogs were anesthetized and normally ventilated. Recordings were made before and after application of LASSBio-294, 1 mg kg^−1 min^−1 for 13 min.

[5] = system: rat thoracic aorta; assay: Relaxation of noradrenaline-precontracted thoracic aortic rings
Description: Aortic rings: Male wistar rats (300–350 g) were anaesthetized with ether and killed by cervical dislocation. The thoracic aorta was quickly removed, placed in physiological solution, cleaned of fat and connective tissue, and cut into 3-mm rings. In some experiments endothelium was mechanically removed by gently rubbing inverted rings on a cotton surface moistened with physiological solution. The rings were fixed in an organ bath chamber filled with physiological solution (composition (mM): NaCl 122, KCl 5, NaHCO3 15, glucose 11.5, MgCl2 1.25, CaCl2 1.25 and KH2PO4 1.25) aerated with O2/CO2, maintained at 37° C., and left to equilibrate for 60 min during which the physiological solution was changed twice. All experiments were carried out under an initial tension of 20 mN, and the developed active tension was measured isometrically using a Grass Transducer (FT03). Data were acquired and analyzed by Chart 3.4/s software (MacLab, USA). The contraction was induced by 1 μM Noradrenaline (NOR) and when it reached a plateau the relaxant drugs (or solvent—time-matched control) were added. The rings contracted with 1 μM NOR that relaxed 40–50% in response to 1 μM acetylcholine were considered with intact endothelium. Drugs: LASSBio-294 and ODQ were dissolved in 100% dimethyl sulphoxide (DMSO). Noradrenalin, 1-NAME, IBMX, methylene blue, acetylcholine and indomethacin were purchased from SIGMA (USA). All drugs but indomethacin were dissolved in water in the day of the experiment. Indomethacin was dissolved in 5% sodium carbonate. Statistics: Data are presented as mean ±sem. Statistical analysis was performed using the Primer software. Vasodilator responses are expressed in percentage of the maximal contraction induced by 1 μM NOR. Differences were considered significant at p<0.05 (Student's t test).

[6] = system: contractile system of cardiac fibers; assay: Ca2+-induced tension in Triton X-100 treated left ventricular muscle bundles; design: species or system Wistar rats
Experimental: FIG. 12. Muscle bundles were treated with 1% Triton X-100 for 60 min and exposed to solutions containing increasing concentrations of Ca^2+ in the presence or absence of LASSBio-294 (100 μM). Calibration: Vertical, 10 mm=20 mg; Horizontal, 10 mm=40 sec.
FIG. 13. Bundles of left ventricular muscles were treated with Triton X-100 and exposed to increasing concentrations of Ca^2+. Muscle tension expressed as % of the maximal response induced by 0.5 mM CaCl2 is graphed as a function of pCa.
b. Graphic representation of the tests in FIG. 7 showing the effect of LASSBio-294 on uptake of Ca^2+ by sarcoplasmic reticulum in isolated cardiac muscle with sarcolemma removed. FIG. 9 illustrates the effect of LASSBio-294 on tension in isolated cardiac muscle with sarcolemma removed was measured. Measurement of contraction induced by caffeine, as a function concentration of LASSBio-294 in bathing solution. FIG. 9 is a graphic representation of the effect of increasing concentrations of LASSBio-294 between 0 and 20 μM. […] FIG. 12 illustrates the effect of LASSBio-294 on sensitivity of cardiac fibers to calcium. Calcium levels can induce isometric twitch. […]
Bundles of left ventricular muscle (130 μm diameter and 1–2 mm in thickness) from Wistar rats were dissected out and mounted for measurement of isometric tension. […] Comparison of caffeine alone to caffeine in the presence of LASSBio-294 was measured.

## O=C(NN=Cc1cccs1)c1ccc2c(c1)OCO2 [LASSBio-294, 3,4-methylenedioxybenzoyl-2-thienylhydrazone]
[1]
  blood cell values: unaffected; also recorded: no significant change in blood cell values
  hematocrit levels, leucocytes and hemoglobin: not significantly changed
[2]
  direct inhibition of particulate PDE 4: did not inhibit directly
[3]
  effect on Ca^2+-ATPase: did not affect
[4]
  left intraventricular pressure and arterial pressure: no change in pressure
[5]
  vasodilator activity (conclusion): has vasodilator activity
[5]; 1 μM noradrenaline precontraction, 100 μM
  relaxation of aortic rings with intact endothelium: relaxed noradrenaline-precontracted aortic rings; also recorded: relaxed intact aortic rings in a concentration-dependent manner
[5]; 30 μM methylene blue added after compound 100 μM
  relaxation after addition of methylene blue: fully reversed
[5]; 30 μM methylene blue added before compound
  relaxation after pre-treatment with methylene blue: not able to induce relaxation; also recorded: prevented; also recorded: abolishes
[5]; 1-NAME 100 μM during 30 min
  relaxation after 1-NAME treatment: no difference in the relaxation
[5]; ODQ 10 μM, compound 100 μM, preliminary assays
  vasorelaxation in presence of ODQ: prevented
[5]; endothelium removed
  relaxation in endothelium-denuded aorta: abolished
[5]; inhibition of both NOS and cycloxigenase pathways
  relaxation after 1-NAME plus indomethacin: same level of relaxation observed in the presence of only 1-NAME; also recorded: the same as observed in the presence of 1-NAME alone
[5]; intact rings, 1 μM noradrenaline
  relaxation compared with acetylcholine and IBMX: more slowly; also recorded: less pronounced
[6]
  sensitivity of muscle fibers to calcium: does not change
[6]; Triton X-100 treated fibers, 100 μM vs control
  isometric twitch response at each level of pCa: greater in the presence of LASSBio-294 than in control
